Source: patent US10208071B2, “Use of agonists of formyl peptide receptor 2 for treating ocular inflammatory diseases” (Allergan, Inc., priority 2013, dated 2019)

Experiments:
[1] = target: T1, FPR2 (Homo sapiens (Human), UniProt P25090); assay: FPR2 Ga16-CHO EC50 (efficacy), Tables 1-3; assay type: cell-based; details: for FPR2 Ga16-CHO (efficacy): efficacy in parentheses
[2] = tested on: corneal epithelial wound; assay: Alkali burn corneal wound in rabbits; assay type: in vivo; details: FIG. 3; rabbit model, b270 says mouse models; topical three times a day
From the text: Alkali burn in rabbits: Corneal epithelium plays an important role in the maintenance of corneal function and integrity. Prolonged corneal epithelial defects causes corneal opacity, neovascularization, bacterial infection and visual loss. Corneal epithelial healing is a complex process involving inflammatory response to injury, cell proliferation and migration. Animal models of corneal injury are every useful to test new anti-inflammatory and pro-wound healing therapies. New Zealand White rabbits weighing between 2.1 and 2.5 kg were anesthetized systemically with Ketamine/Xylazine (35/5 mg/kg) subcutaneously and topically with proparacaine (0.5%). The corneal epithelial wound in one eye was induced with a NaOH saturated filter paper containing 1.0 N NaOH for 30 seconds. The eyes were rinsed with sterile PBS. The corneal wound was confirmed by fluorescein staining with 10% sodium fluorescein (Science Lab Com) and slit lamp photography. Test compounds were formulated in the vehicle described above. For initial studies compounds were topically dosed three times a day. Quantification of corneal wound areas was done using Image J software where fluorescing stain green part was traced and converted to total pixel.

[3] = target: T1, FPR2; assay: FLIPR Ca+2 response, HEK-Gα16 cells stably expressing the human FPR2 receptor (Table 4); assay type: cell-based; details: for FPR2 (efficacy): efficacy in parentheses
Procedure, shortened: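 HEK-Gα16 cells stably expressing human FPR2, loaded with 2 μM Fluo-4 in HBSS/20 mM HEPES for 40 min at 37° C., then washed. Ligands added in HBSS/Hepes and Ca+2 responses recorded on FLIPR in relative fluorescence units.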

T1 sequence (P25090 whole entry): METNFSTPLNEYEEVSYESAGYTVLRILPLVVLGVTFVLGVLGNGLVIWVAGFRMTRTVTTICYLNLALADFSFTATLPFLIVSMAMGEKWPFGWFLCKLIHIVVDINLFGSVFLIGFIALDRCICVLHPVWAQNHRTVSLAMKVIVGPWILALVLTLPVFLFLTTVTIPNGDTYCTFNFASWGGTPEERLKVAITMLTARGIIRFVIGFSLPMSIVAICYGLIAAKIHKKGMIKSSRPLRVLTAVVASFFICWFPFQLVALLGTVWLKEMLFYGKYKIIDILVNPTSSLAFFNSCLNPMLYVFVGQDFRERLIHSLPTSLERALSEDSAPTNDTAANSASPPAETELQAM

| SMILES | EC50 [1] | FPR2 Ga16-CHO (efficacy) [1] | FPR2 (efficacy) [3] | EC50 ([3]; unit inferred) | healing and re-epithelialization of corneal wound [2] |
| --- | --- | --- | --- | --- | --- |
| CCC1(CC)NC(=O)N(CC(=O)Nc2ccc(F)cc2)C1=O [2-(4,4-diethyl-2,5-dioxoimidazolidin-1-yl)-N-(4-fluorophenyl)acetamide] | 2770 nM | nM (0.67) | – | – | – |
| COc1ccc(NC(=O)NC(Cc2ccccc2)C(=O)O)cc1OC (stereo not drawn) [2-({[(3,4-dimethoxyphenyl)amino]carbonyl}amino)-3-phenylpropanoic acid] | 2790 nM | nM (0.72) | – | – | – |
| O=C(Nc1ccc(OC(F)(F)F)cc1)NC(Cc1ccccc1)C(=O)O (stereo not drawn) [3-phenyl-2-[({[4-(trifluoromethoxy)phenyl]amino}carbonyl)amino]propanoic acid] | 1570 nM | nM (0.79) | – | – | – |
| O=C(Nc1cccnc1)NC(Cc1ccccc1)C(=O)O (stereo not drawn) [3-phenyl-2-{[(pyridin-3-ylamino)carbonyl]amino}propanoic acid] | > 10000 nM | – | – | – | – |
| O=C(Nc1ccc(Br)cc1)N[C@H](Cc1ccccc1)C(=O)O [(2R)-2-({[(4-bromophenyl)amino]carbonyl}amino)-3-phenylpropanoic acid] | 1820 nM | nM (0.99) | – | – | – |
| O=C(Nc1ccc(Cl)c(Cl)c1)N[C@@H](Cc1ccccc1)C(=O)O [(2S)-2-({[(3,4-dichlorophenyl)amino]carbonyl}amino)-3-phenylpropanoic acid] | – | μM (0.57) | – | – | – |
| COc1ccc(NC(=O)N[C@@H](Cc2ccccc2)C(=O)O)cc1 [(2S)-2-({[(4-methoxyphenyl)amino]carbonyl}amino)-3-phenylpropanoic acid] | 1750 nM | nM (0.90) | – | – | – |
| O=C(Nc1ccc([N+](=O)[O-])cc1)N[C@@H](Cc1ccccc1)C(=O)O [(2S)-2-({[(4-nitrophenyl)amino]carbonyl}amino)-3-phenylpropanoic acid] | – | nM (0.82) | – | – | – |
| CC[C@H](C)[C@H](NC(=O)Nc1ccc(Br)cc1)C(=O)NCC(=O)O [Compound 3, {[(2S,3S)-2-{[(4-bromophenyl)carbamoyl]amino}-3-methylpentanoyl]amino}acetic acid] | – | – | (1.0) | 1.98 nM | accelerated healing and re-epithelialization |
| CC[C@H](C)[C@H](NC(=O)Nc1ccc(Br)cc1)C(=O)O [Compound 53, (2S,3S)-2-{[(4-bromophenyl)carbamoyl]amino}-3-methylpentanoic acid] | – | nM (0.89) | nM (0.9) | – | – |
| O=C(CN1C(=O)C2CC=CCC2C1=O)Nc1ccc(Br)cc1 (stereo not drawn) [N-(4-bromophenyl)-1,3,3a,4,7,7a-hexahydro-1,3-dioxo-2H-isoindole-2-acetamide] | – | (0.98) | – | – | – |
| O=C(CN1C(=O)C2C3C=CC(C3)C2C1=O)Nc1ccc(Br)cc1 (stereo not drawn) [N-(4-bromophenyl)-1,3,3a,4,7,7a-hexahydro-1,3-dioxo-4,7-methano-2H-isoindole-2-acetamide] | – | (0.90) | – | – | – |
| O=C(CN1C(=O)NC2(CCCCC2)C1=O)Nc1ccc(Br)cc1 [N-(4-bromophenyl)-2-(2,4-dioxo-1,3-diazaspiro[4.5]dec-3-yl)acetamide] | 738 nM | nM (0.89) | – | – | – |
| O=C(CN1C(=O)NC2(CCCCCC2)C1=O)Nc1ccc(Br)cc1 [N-(4-bromophenyl)-2-(2,4-dioxo-1,3-diazaspiro[4.6]undec-3-yl)acetamide] | 679 nM | nM (0.96) | – | – | – |
| CCCC1(CCC)NC(=O)N(CC(=O)Nc2ccc(Br)cc2)C1=O [N-(4-bromophenyl)-2-(2,5-dioxo-4,4-dipropylimidazolidin-1-yl)acetamide] | 645 nM | nM (0.98) | – | – | – |
| CC1(C)NC(=O)N(CC(=O)Nc2ccc(Br)cc2)C1=O [N-(4-bromophenyl)-2-(4,4-dimethyl-2,5-dioxoimidazolidin-1-yl)acetamide] | 719 nM | nM (0.94) | – | – | – |
| CCC1(c2ccccc2)NC(=O)N(CC(=O)Nc2ccc(Br)cc2)C1=O (stereo not drawn) [N-(4-bromophenyl)-2-(4-ethyl-2,5-dioxo-4-phenylimidazolidin-1-yl)acetamide] | 523 nM | nM (0.83) | – | – | – |

Further lines, with some results ahead:

| EC50 [1] | FPR2 Ga16-CHO (efficacy) [1] | FPR2 (efficacy) [3] | EC50 ([3]; unit inferred) | SMILES | healing and re-epithelialization of corneal wound [2] |
| --- | --- | --- | --- | --- | --- |
| 67 nM | nM (0.89) | – | – | O=C(Nc1ccc(Br)cc1)NC(Cc1c[nH]c2ccccc12)C(=O)O (stereo not drawn) [2-({[(4-bromophenyl)amino]carbonyl}amino)-3-(1H-indol-3-yl)propanoic acid] | – |
| 110 nM | nM (1.0) | – | – | O=C(Nc1ccc(Cl)cc1)NC(Cc1ccccc1)C(=O)O (stereo not drawn) [2-({[(4-chlorophenyl)amino]carbonyl}amino)-3-phenylpropanoic acid] | – |
| 152 nM | nM (0.91) | – | – | CC(C)[C@H](NC(=O)Nc1ccc(Br)cc1F)C(=O)O [(2S)-2-({[(4-bromo-2-fluorophenyl)amino]carbonyl}amino)-3-methylbutanoic acid] | – |
| 72 nM | nM (0.91) | – | – | CC(C)[C@H](NC(=O)Nc1ccc(Br)cc1)C(=O)O [(2S)-2-({[(4-bromophenyl)amino]carbonyl}amino)-3-methylbutanoic acid] | – |
| 31 nM | nM (1.0) | – | – | O=C(Nc1ccc(Br)cc1)N[C@@H](Cc1ccccc1)C(=O)O [(2S)-2-({[(4-bromophenyl)amino]carbonyl}amino)-3-phenylpropanoic acid] | – |
| 120 nM | nM (0.97) | – | – | O=C(Nc1ccc(C(F)(F)F)cc1)N[C@@H](Cc1ccccc1)C(=O)O [(2S)-3-phenyl-2-[({[4-(trifluoromethyl)phenyl]amino}carbonyl)amino]propanoic acid] | – |
| 25.8 nM | nM (0.94) | – | – | O=C(Nc1ccc(Br)cc1)N[C@H](C(=O)O)c1ccccc1 [(2S)-({[(4-bromophenyl)amino]carbonyl}amino) (phenyl)acetic acid] | – |
| 322 nM | nM (0.96) | – | – | O=C(CN1C(=O)NC2(CCCC2)C1=O)Nc1ccc(Br)cc1 [N-(4-bromophenyl)-2-(2,4-dioxo-1,3-diazaspiro[4.4]non-3-yl)acetamide] | – |
| 96 nM | nM (0.98) | – | – | CCC1(CC)NC(=O)N(CC(=O)Nc2ccc(Br)cc2)C1=O [N-(4-bromophenyl)-2-(4,4-diethyl-2,5-dioxoimidazolidin-1-yl)acetamide] | – |
| 166 nM | nM (0.84) | – | – | CC1(C2CC2)NC(=O)N(CC(=O)Nc2ccc(Br)cc2)C1=O (stereo not drawn) [N-(4-bromophenyl)-2-(4-cyclopropyl-4-methyl-2,5-dioxoimidazolidin-1-yl)acetamide] | – |
| 485 nM | nM (1.0) | – | – | CCC1(C)NC(=O)N(CC(=O)Nc2ccc(Br)cc2)C1=O (stereo not drawn) [N-(4-bromophenyl)-2-(4-ethyl-4-methyl-2,5-dioxoimidazolidin-1-yl)acetamide] | – |
| 314 nM | nM (0.79) | – | – | CCC1(CC)NC(=O)N(CC(=O)Nc2ccc(Cl)cc2)C1=O [N-(4-chlorophenyl)-2-(4,4-diethyl-2,5-dioxoimidazolidin-1-yl)acetamide] | – |
